Measured values taken from patent US3932646A, “Pharmaceutical compositions containing unsymmetrical esters of 1,4-dihydropyridine 3,5-dicarboxylate” (Farbenfabriken Bayer AG, priority 1971, dated 1976).

How the values were obtained:
Type in all cases: in vivo
[1] = system: coronary vessels; assay: Dosage at which a coronary effect is observed, i.v.; conditions: for minimal effective dose: iv
[2] = system: hypertensive rat; assay: Blood pressure effect on hypertensive rat p.o.; conditions: given as "from" dose; for minimal effective dose: po, read-out: Blood pressure effect on hypertensive rat (dose from which the effect is seen)
Description: (§1) The pharmacological properties of these compounds are conveniently observed in well-known animal models which parallel the desired clinical response. Similarly toxicity is low, as measured for example in the conventional LD50 determination.

[3] = Toxicity (Mouse), conventional LD50 determination p.o.; conditions: in vivo, po
Description: as §1

[4] = system: Mouse; assay: as above
Description: as §1

SMILES	minimal effective dose [1]	minimal effective dose [2]	LD50 [3]	Dose at which a coronary effect is observed [1]	Toxicity (Mouse) LD50 [4]	Blood pressure effect on hypertensive rat (dose from which the effect is seen) [2]
C=CCOC(=O)C1=C(C)NC(C)=C(C(=O)OCC)C1c1ccccc1C (stereo not shown) [Example 1, 2,6-dimethyl-4-(2'-methylphenyl)-1,4-dihydropyridine-3,5-dicarboxylic acid 3-ethyl ester-5-allyl ester]	0.05 mg/kg	≥ 10 mg/kg	> 3000 mg/kg			
C#CCOC(=O)C1=C(C)NC(C)=C(C(=O)OCC)C1c1ccccc1C (stereo not shown) [Example 2, 2,6-dimethyl-4-(2'-methylphenyl)-1,4-dihydropyridine-3,5-dicarboxylic acid 3-ethyl ester-5-propargyl ester]	0.01 mg/kg	≥ 10 mg/kg	800 mg/kg			
C=CCOC(=O)C1=C(C)NC(C)=C(C(=O)OC)C1c1ccccc1F (stereo not shown) [Example 3, 2,6-dimethyl-4-(2'-fluorophenyl)-1,4-dihydropyridine-3,5-dicarboxylic acid 3-methyl ester-5-allyl ester]	0.01 mg/kg	≥ 3.1 mg/kg	800 mg/kg			
C#CCOC(=O)C1=C(C)NC(C)=C(C(=O)OCC)C1c1ccccc1C(F)(F)F (stereo not shown) [Example 4, 2,6-dimethyl-4-(2'-trifluoromethylphenyl)-1,4-dihydropyridine-3,5-dicarboxylic acid 3-ethyl ester-5-propargyl ester]		≥ 1 mg/kg		0.005 mg/kg	200 mg/kg	
C=CCOC(=O)C1=C(C)NC(C)=C(C(=O)OCC)C1c1ccccc1C(F)(F)F (stereo not shown) [Example 5, 2,6-dimethyl-4-(2'-trifluoromethylphenyl)-1,4-dihydropyridine-3,5-dicarboxylic acid 3-ethyl ester-5-allyl ester]	0.001 mg/kg	≥ 3.1 mg/kg	630 mg/kg			
C#CCOC(=O)C1=C(C)NC(C)=C(C(=O)OC)C1c1ccccc1C(F)(F)F (stereo not shown) [Example 6, 2,6-dimethyl-4-(2'-trifluoromethylphenyl)-1,4-dihydropyridine-3,5-dicarboxylic acid 3-methyl ester-5-propargyl ester]	0.005 mg/kg	≥ 0.3 mg/kg	200 mg/kg			
CCCOCCOC(=O)C1=C(C)NC(C)=C(C(=O)OCC)C1c1ccccc1OC (stereo not drawn) [Example 7, 2,6-dimethyl-4-(2'-methoxyphenyl)-1,4-dihydropyridine-3,5-dicarboxylic acid 3-ethyl ester-5-β-propoxyethyl ester]	0.05 mg/kg	≥ 31.5 mg/kg	> 3000 mg/kg			
C=CCOC(=O)C1=C(C)NC(C)=C(C(=O)OCC)C1c1ccccc1Cl (stereo not shown) [Example 8, 2,6-dimethyl-4-(2'-chlorophenyl)-1,4-dihydropyridine-3,5-dicarboxylic acid 3-ethyl ester-5-allyl ester]	0.01 mg/kg	≥ 1 mg/kg	630 mg/kg			
C=CCOC(=O)C1=C(C)NC(C)=C(C(=O)OCC)C1c1ccc(OC)c(OC)c1OC (stereo not shown) [Example 9, 2,6-dimethyl-4-(2', 3', 4'-trimethoxyphenyl)-1,4-dihydropyridine-3,5-dicarboxylic acid 3-ethyl ester-5-allyl ester]			3000 mg/kg			
C=CCOC(=O)C1=C(C)NC(C)=C(C(=O)OC)C1c1cc(Br)c(OC)c(OC)c1 (stereo not shown) [Example 10, 2,6-dimethyl-4-(3', 4'-dimethoxy-5-bromophenyl)-1,4-dihydropyridine-3,5-dicarboxylic acid 3-methyl ester-5-allyl ester]	5 mg/kg		> 3000 mg/kg			
C#CCOC(=O)C1=C(C)NC(C)=C(C(=O)OC)C1c1ccccc1OC (stereo not shown) [Example 11, 2,6-dimethyl-4-(2'-methoxyphenyl)-1,4-dihydropyridine-3,5-dicarboxylic acid 3-propargyl ester 5-methyl ester]	0.05 mg/kg	≥ 10 mg/kg	> 3000 mg/kg			
C#CCOC(=O)C1=C(C)NC(C)=C(C(=O)OC)C1c1ccccc1C(F)(F)F (stereo not shown) [Example 12, 2,6-dimethyl-4-(2'-trifluoromethylphenyl)-1,4-dihydropyridine 3,5-dicarboxylic acid 3-propargyl ester 5-methyl ester]				0.003 mg/kg	100 mg/kg	≥ 0.3 mg/kg
C#CCOC(=O)C1=C(C)NC(C)=C(C(=O)OCC)C1c1ccccc1C(F)(F)F (stereo not shown) [Example 13, 2,6-dimethyl-4-(2'-trifluoromethylphenyl)-1,4-dihydropyridine-3,5-dicarboxylic acid 3-propargyl ester 5-ethyl ester]				0.05 mg/kg	2000 mg/kg	≥ 1.0 mg/kg
CCOC(=O)C1=C(C)NC(C)=C(C(=O)OCCOC)C1c1ccccc1Cl (stereo not drawn) [Example 14, 2,6-dimethyl-4-(2'-chlorophenyl)-1,4-dihydropyridine 3,5-dicarboxylic acid 3-β-methoxyethyl ester 5-ethyl ester]	0.01 mg/kg	≥ 3.1 mg/kg	1000 mg/kg			
C=CCOC(=O)C1=C(C)NC(C)=C(C(=O)OC(C)C)C1c1cccc(C(F)(F)F)c1 (stereo not shown) [Example 15, 2,6-dimethyl-4-(3'-trifluoromethylphenyl)-1,4-dihydropyridine-3,5-dicarboxylic acid 3-isopropyl ester 5-allyl ester]	0.05 mg/kg	≥ 3.1 mg/kg	> 3000 mg/kg			
C#CCOC(=O)C1=C(C)NC(C)=C(C(=O)OC)C1c1ccccc1F (stereo not shown) [Example 16, 2,6-dimethyl-4-(2'-fluorophenyl)-1,4-dihydropyridine-3,5-dicarboxylic acid 3-propargyl ester 5-methyl ester]	0.05 mg/kg	≥ 10 mg/kg	200 mg/kg			
C=CCOC(=O)C1=C(C)NC(C)=C(C(=O)OCC)C1c1cccc(Cl)c1 (stereo not shown) [Example 17, 2,6-dimethyl-4-(3'-chlorophenyl)-1,4-dihydropyridine-3,5-dicarboxylic acid 3-allyl ester 5-ethyl ester]	0.01 mg/kg	≥ 10 mg/kg	> 3000 mg/kg			
C#CCOC(=O)C1=C(C)NC(C)=C(C(=O)OCC)C1c1ccccc1OC (stereo not shown) [Example 18, 2,6-dimethyl-4-(2'-methoxyphenyl)-1,4-dihydropyridine-3,5-dicarboxylic acid 3-propargyl ester 5-ethyl ester]	0.05 mg/kg	≥ 10 mg/kg	3000 mg/kg			
C#CCOC(=O)C1=C(C)NC(C)=C(C(=O)OCC)C1c1ccc(C(=O)OCC)cc1 (stereo not shown) [Example 19, 2,6-dimethyl-4-(4'-carboxyethylphenyl)-1,4-dihydropyridine-3,5-dicarboxylic acid 3-propargyl ester 5-ethyl ester]			3000 mg/kg			
